The values below come from article PMC7006766, “Coumarins from Magydaris pastinacea as inhibitors of the tumour-associated carbonic anhydrases IX and XII: isolation, biological studies and in silico evaluation” (Journal of Enzyme Inhibition and Medicinal Chemistry, 2020).

Structures are written as SMILES. Some results are limits rather than exact numbers.

One assay addresses T1, hCA II (Homo sapiens, UniProt P00918).
T1 construct: made in house
Assay: not given
It is filed as biochemical.
Conditions: not given
For orientation: Ki means a measure of affinity in units of concentration, obtained from inhibition or displacement. Regarding `CC1(C)O[C@@H]1COc1c2occc2cc2ccc(=O)oc12` [Compound 8, heraclenin], the inhibition constant Ki is over 10000 nM.

The same assay, now with this note: stopped flow, 6 h preincubation, mean of three assays; read-out: Ki hCA II.
Consider `COc1c2ccoc2c(OC)c2oc(=O)ccc12` [Compound 3, isopimpinellin], for which the inhibitory constant (Ki) was over 10000 nM.

Take `COc1c2ccoc2c(OC/C=C(\C)CO)c2oc(=O)ccc12` [Compound 5, E-5-methoxy-trichoclin]: the Ki is over 10000 nM.

`CC(C)(O)[C@H](O)COc1c2occc2cc2ccc(=O)oc12` [Compound 9, (-)-heraclenol]: the inhibitory constant (Ki) was over 10000 nM.

For `COc1c2ccoc2cc2oc(=O)ccc12` [Compound 1, begapten], the inhibition constant Ki was over 10000 nM.

As for `COc1ccc2ccc(=O)oc2c1C[C@@H]1OC1(C)C` [Compound 13, meranzin], the inhibition constant Ki was over 10000 nM.

For the compound `C/C(=C\COc1c2occc2cc2ccc(=O)oc12)CO` [Compound 4, E-trichoclin], the Ki was over 10000 nM.

On to `COc1cc2ccc(=O)oc2c2c1O[C@H](C(C)(C)O)C2` [Compound 11, Magydarin], for which the Ki was over 10000 nM.

Take `CC(C)=CCOc1c2occc2cc2ccc(=O)oc12` [Compound 6, imperatorin]: the inhibition constant (Ki) was over 10000 nM.

As for `COc1c2ccoc2c(OCC=C(C)C)c2oc(=O)ccc12` [Compound 7, phellopterin], the Ki is over 10000 nM.

As for `CC(=O)O[C@@H](COc1c2occc2cc2ccc(=O)oc12)C(C)(C)O` [Compound 10, (+)-heraclenol acetate], the Ki is over 10000 nM.

Regarding `COc1ccc2ccc(=O)oc2c1CC=C(C)C` [Compound 12, osthol], the Ki was over 10000 nM.

Consider `COc1ccc2ccc(=O)oc2c1C[C@H](OC(C)=O)C(C)(C)O` [Compound 14, 2′-acetoxy-3′-hydroxy-osthol], for which the Ki is over 10000 nM.

In the case of `CC(C)=CCC/C(C)=C/CC/C(C)=C/COc1ccc2ccc(=O)oc2c1` [Compound 15, umbelliprenin], the inhibition constant (Ki) is over 10000 nM.

In the case of `COc1c2occc2cc2ccc(=O)oc12` [Compound 2, xanthotoxin], the inhibition constant (Ki) was over 10000 nM.

For the next assay, the target named is T2, hCA I (Homo sapiens, UniProt P00915).
T2 construct: made in house
T2 sequence (P00915 whole entry): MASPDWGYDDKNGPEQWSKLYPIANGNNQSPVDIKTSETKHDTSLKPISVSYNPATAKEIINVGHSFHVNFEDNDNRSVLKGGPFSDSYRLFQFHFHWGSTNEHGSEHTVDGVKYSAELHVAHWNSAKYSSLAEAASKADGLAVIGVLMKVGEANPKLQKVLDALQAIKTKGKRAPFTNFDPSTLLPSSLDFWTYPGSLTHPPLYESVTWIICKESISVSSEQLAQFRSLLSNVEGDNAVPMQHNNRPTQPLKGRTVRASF
Assay: not given
The format is biochemical.
Conditions: not given
`CC1(C)O[C@@H]1COc1c2occc2cc2ccc(=O)oc12` [Compound 8, heraclenin]: the Ki is over 10000 nM.

Still in this assay, the particulars now being: stopped flow, 6 h preincubation, mean of three assays; read-out: Ki hCA I.
Consider `COc1c2ccoc2c(OC)c2oc(=O)ccc12` [Compound 3, isopimpinellin], for which the Ki was over 10000 nM.

Take `COc1c2ccoc2c(OC/C=C(\C)CO)c2oc(=O)ccc12` [Compound 5, E-5-methoxy-trichoclin]: the Ki is over 10000 nM.

Regarding `CC(C)(O)[C@H](O)COc1c2occc2cc2ccc(=O)oc12` [Compound 9, (-)-heraclenol], the Ki is over 10000 nM.

In the case of `COc1c2ccoc2cc2oc(=O)ccc12` [Compound 1, begapten], the Ki was over 10000 nM.

Regarding `COc1ccc2ccc(=O)oc2c1C[C@@H]1OC1(C)C` [Compound 13, meranzin], the Ki was over 10000 nM.

Take `C/C(=C\COc1c2occc2cc2ccc(=O)oc12)CO` [Compound 4, E-trichoclin]: the inhibition constant (Ki) is over 10000 nM.

With `COc1cc2ccc(=O)oc2c2c1O[C@H](C(C)(C)O)C2` [Compound 11, Magydarin], the Ki is over 10000 nM.

For the compound `CC(C)=CCOc1c2occc2cc2ccc(=O)oc12` [Compound 6, imperatorin], the inhibition constant Ki is over 10000 nM.

Turning to `COc1c2ccoc2c(OCC=C(C)C)c2oc(=O)ccc12` [Compound 7, phellopterin], the inhibition constant Ki is over 10000 nM.

For the compound `CC(=O)O[C@@H](COc1c2occc2cc2ccc(=O)oc12)C(C)(C)O` [Compound 10, (+)-heraclenol acetate], the Ki was over 10000 nM.

As to `COc1ccc2ccc(=O)oc2c1CC=C(C)C` [Compound 12, osthol], the inhibition constant (Ki) was over 10000 nM.

Turning to `COc1ccc2ccc(=O)oc2c1C[C@H](OC(C)=O)C(C)(C)O` [Compound 14, 2′-acetoxy-3′-hydroxy-osthol], the inhibition constant Ki is over 10000 nM.

In the case of `CC(C)=CCC/C(C)=C/CC/C(C)=C/COc1ccc2ccc(=O)oc2c1` [Compound 15, umbelliprenin], the Ki was over 10000 nM.

`COc1c2occc2cc2ccc(=O)oc12` [Compound 2, xanthotoxin]: the Ki is over 10000 nM.

The target of another assay is T3, hCA XII (Homo sapiens, UniProt O43570).
T3 sequence (O43570 25-354): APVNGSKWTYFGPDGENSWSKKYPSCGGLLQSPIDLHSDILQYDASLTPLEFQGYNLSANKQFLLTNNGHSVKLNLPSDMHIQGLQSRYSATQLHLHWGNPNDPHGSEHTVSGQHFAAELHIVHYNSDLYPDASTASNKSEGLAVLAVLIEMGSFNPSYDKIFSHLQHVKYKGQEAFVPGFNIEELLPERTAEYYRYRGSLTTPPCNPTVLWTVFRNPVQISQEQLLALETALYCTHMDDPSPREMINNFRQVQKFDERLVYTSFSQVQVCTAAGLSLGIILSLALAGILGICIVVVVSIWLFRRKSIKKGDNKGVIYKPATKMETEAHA
Assay: not given
The note with it: selectivity for hCA XII.
For `COc1ccc2ccc(=O)oc2c1C[C@H](OC(C)=O)C(C)(C)O` [Compound 14, 2′-acetoxy-3′-hydroxy-osthol], the “Ki ratio IX/XII” value was over 34.

The assay is the same for the next values; noted with them: selectivity over off-target CA I/II.
On to `CC(C)=CCC/C(C)=C/CC/C(C)=C/COc1ccc2ccc(=O)oc2c1` [Compound 15, umbelliprenin], for which the “Ki ratio I/XII” value was over 1724.

Another assay deals with 4T1 cells.
Assay: not given
As to conditions: encapsulated in nanoliposomes vs free compound; cited from earlier work.
On to `CC(C)=CCC/C(C)=C/CC/C(C)=C/COc1ccc2ccc(=O)oc2c1` [Compound 15, umbelliprenin], for which the “change of antiproliferative effect against 4T1 cells when encapsulated in nanoliposomes” value is listed as “increased by five folds”.

A further assay has as its target T3, hCA XII. Description: biochemical. The note with it: stopped flow, 6 h preincubation, mean of three assays.
`COc1c2ccoc2c(OC)c2oc(=O)ccc12` [Compound 3, isopimpinellin] registered a Ki of 590 nM.

`COc1c2ccoc2c(OC/C=C(\C)CO)c2oc(=O)ccc12` [Compound 5, E-5-methoxy-trichoclin]: the inhibition constant Ki worked out at 63.5 nM.

For the compound `CC(C)(O)[C@H](O)COc1c2occc2cc2ccc(=O)oc12` [Compound 9, (-)-heraclenol], the Ki turned out to be 814 nM.

As to `COc1c2ccoc2cc2oc(=O)ccc12` [Compound 1, begapten], the inhibition constant Ki turned out to be 855 nM.

Take `COc1ccc2ccc(=O)oc2c1C[C@@H]1OC1(C)C` [Compound 13, meranzin]: the Ki is over 10000 nM.

For the compound `C/C(=C\COc1c2occc2cc2ccc(=O)oc12)CO` [Compound 4, E-trichoclin], the affinity, expressed as Ki, was 550 nM.

For the compound `COc1cc2ccc(=O)oc2c2c1O[C@H](C(C)(C)O)C2` [Compound 11, Magydarin], affinity was put at a Ki of 623 nM.

`CC(C)=CCOc1c2occc2cc2ccc(=O)oc12` [Compound 6, imperatorin] yielded an inhibition constant (Ki) of 833 nM.

Consider `COc1c2ccoc2c(OCC=C(C)C)c2oc(=O)ccc12` [Compound 7, phellopterin], for which the inhibition constant Ki was found to be 787 nM.

`CC(=O)O[C@@H](COc1c2occc2cc2ccc(=O)oc12)C(C)(C)O` [Compound 10, (+)-heraclenol acetate] registered a Ki of over 10000 nM.

`COc1ccc2ccc(=O)oc2c1CC=C(C)C` [Compound 12, osthol] returned a Ki of 74.5 nM.

In the case of `COc1ccc2ccc(=O)oc2c1C[C@H](OC(C)=O)C(C)(C)O` [Compound 14, 2′-acetoxy-3′-hydroxy-osthol], the inhibitory constant (Ki) turned out to be 291 nM.

For `CC(C)=CCC/C(C)=C/CC/C(C)=C/COc1ccc2ccc(=O)oc2c1` [Compound 15, umbelliprenin], the inhibition constant Ki came out at 5.8 nM.

Regarding `COc1c2occc2cc2ccc(=O)oc12` [Compound 2, xanthotoxin], the affinity corresponds to a Ki of 876 nM.

For a further assay, the target named is T4, hCA IX (Homo sapiens, UniProt Q16790).
T4 construct: made in house
Assay: not given
It is filed as biochemical.
Conditions: not given
With `COc1ccc2ccc(=O)oc2c1C[C@@H]1OC1(C)C` [Compound 13, meranzin], the “Ki ratio XII/IX (selectivity index hCA IX over hCA XII)” value is given as over 5.

With `CC(=O)O[C@@H](COc1c2occc2cc2ccc(=O)oc12)C(C)(C)O` [Compound 10, (+)-heraclenol acetate], the “Ki ratio XII/IX (selectivity index hCA IX over hCA XII)” value is over 52.

The assay is the same for the next values; noted with them: stopped flow, 6 h preincubation, mean of three assays.
The compound `COc1c2ccoc2c(OC)c2oc(=O)ccc12` [Compound 3, isopimpinellin] registered a Ki of 160 nM.

Consider `COc1c2ccoc2c(OC/C=C(\C)CO)c2oc(=O)ccc12` [Compound 5, E-5-methoxy-trichoclin], for which the Ki turned out to be 1500 nM.

The compound `CC(C)(O)[C@H](O)COc1c2occc2cc2ccc(=O)oc12` [Compound 9, (-)-heraclenol] yielded a Ki of 27.5 nM.

Turning to `COc1c2ccoc2cc2oc(=O)ccc12` [Compound 1, begapten], the inhibitory constant (Ki) amounted to 1950 nM.

As to `COc1ccc2ccc(=O)oc2c1C[C@@H]1OC1(C)C` [Compound 13, meranzin], the inhibitory constant (Ki) is 1890 nM.

`C/C(=C\COc1c2occc2cc2ccc(=O)oc12)CO` [Compound 4, E-trichoclin] returned an inhibitory constant (Ki) of 2340 nM.

As to `COc1cc2ccc(=O)oc2c2c1O[C@H](C(C)(C)O)C2` [Compound 11, Magydarin], affinity was put at a Ki of 151 nM.

For `CC1(C)O[C@@H]1COc1c2occc2cc2ccc(=O)oc12` [Compound 8, heraclenin], the Ki amounted to 162 nM.

`CC(C)=CCOc1c2occc2cc2ccc(=O)oc12` [Compound 6, imperatorin]: affinity was put at a Ki of 221 nM.

In the case of `COc1c2ccoc2c(OCC=C(C)C)c2oc(=O)ccc12` [Compound 7, phellopterin], the inhibition constant (Ki) came out at 202 nM.

`CC(=O)O[C@@H](COc1c2occc2cc2ccc(=O)oc12)C(C)(C)O` [Compound 10, (+)-heraclenol acetate]: the affinity corresponds to a Ki of 192 nM.

On to `COc1ccc2ccc(=O)oc2c1CC=C(C)C` [Compound 12, osthol], for which the Ki worked out at 2470 nM.

The compound `COc1ccc2ccc(=O)oc2c1C[C@H](OC(C)=O)C(C)(C)O` [Compound 14, 2′-acetoxy-3′-hydroxy-osthol] returned an inhibitory constant (Ki) of over 10000 nM.

As to `CC(C)=CCC/C(C)=C/CC/C(C)=C/COc1ccc2ccc(=O)oc2c1` [Compound 15, umbelliprenin], the Ki was determined as 266 nM.

`COc1c2occc2cc2ccc(=O)oc12` [Compound 2, xanthotoxin]: the Ki worked out at 195 nM.

The test system of a further assay is HeLa cells. Briefly: MTT cytotoxic assay in cancer HeLa cells. It is filed as cell-based. As to conditions: Homo sapiens, HeLa, 48 h, read-out: IC50 (concentration of compound that reduces the cell viability to 50%). As to the method: Human carcinoma HeLa cell line was obtained from the American Type Culture Collection (ATCC, Rockville, MD). Cells were grown in Dulbecco’s modified Eagle’s medium (DMEM) with high glucose, supplemented with 10% foetal calf serum (FCS), penicillin (100 units/mL)–streptomycin (100 μg/mL), and 2 mM L-glutamine in a 5% CO2 incubator at 37 °C. Subcultures of the HeLa cells were grown in T-75 culture flasks and passaged with a trypsin-EDTA solution. Cell culture materials were purchased from Invitrogen (Milan, Italy).
The in vitro cytotoxic effect of coumarins 5, 9–12, 15 was evaluated in cancer HeLa cells by the MTT (3-(4,5-dimethylthiazol-2-yl)-2,5-diphenyltetrazolium bromide) reduction assay. Cancer cells were seeded in 96-well plates (density of 3 × 10^4 cells/mL) in 100 μL of medium and cultured for 48 h (80% of cell confluence). Cells were subsequently incubated for 48 h with various concentrations (0.1–100 μM, dissolved in DMSO) of coumarins in culture medium (treated cells). Treated cells were compared for viability to untreated cells (control cells) and vehicle-treated cells (incubated for 48 h with an equivalent volume of DMSO; the maximal final concentration was 1%). After the cell medium removing and washing, cells were subjected to the MTT test[35]. After incubation (3 h), colour development was measured at 570 nm with an Infinite 200 auto microplate reader (Infinite 200, Tecan, Austria); the absorbance is proportional to the number of viable cells. Two independent experiments were performed.
In general terms: Tetrazolium assays rely on reduction of a dye to a coloured formazan, in cell work by metabolically active cells.
Regarding `COc1c2ccoc2c(OC/C=C(\C)CO)c2oc(=O)ccc12` [Compound 5, E-5-methoxy-trichoclin], the IC50 is over 100000 nM.

As for `CC(C)(O)[C@H](O)COc1c2occc2cc2ccc(=O)oc12` [Compound 9, (-)-heraclenol], the IC50 was over 100000 nM.

Regarding `COc1cc2ccc(=O)oc2c2c1O[C@H](C(C)(C)O)C2` [Compound 11, Magydarin], the IC50 was over 100000 nM.

Consider `COc1ccc2ccc(=O)oc2c1CC=C(C)C` [Compound 12, osthol], for which the IC50 is 98000 nM.

In the case of `CC(C)=CCC/C(C)=C/CC/C(C)=C/COc1ccc2ccc(=O)oc2c1` [Compound 15, umbelliprenin], the IC50 came out at 75000 nM.

Still in this assay, the particulars now being: Homo sapiens, read-out: IC50 (concentration of compound that reduces the cell viability to 50%); HeLa cells, MTT, measured at 48 h, normoxic.
Regarding `CC(=O)O[C@@H](COc1c2occc2cc2ccc(=O)oc12)C(C)(C)O` [Compound 10, (+)-heraclenol acetate], the IC50 was over 100000 nM.
